Assay results as given in patent US7267994B2, “Element-coded affinity tags” (Regents of the University of California, priority 2003, dated 2007).

Key:
antibody 2D12.5 [1] = assay: relative binding curves of 2D12.5 for Y-DOTA isomers and side chain variants; design: species or system murine; conditions: for relative binding affinity for 2D12.5, isomers: coordinated metal Y^3+, FIG. 15; for relative binding affinity for 2D12.5, side chain location: Y-DOTA molecule with different side chain locations, FIG. 6
Excerpt: FIG. 6 is a graphical display showing the relative binding curves of an exemplary metal chelate, the Y-DOTA molecule, with different side chain locations. […] Evaluation of the crystal structure seems to indicate that shorter substitutions at this position may bind with higher affinity. Substitutions at other locations may yield reasonably high affinities as well. The (5-Amino-2-methoxy-phenyl)-carboxymethyl)-DOTA analyzed in this experiment was racemic, so it is not clear which isomer binds with higher affinity. The low pKa of the carboxymethyl proton makes it difficult to prepare a chirally pure molecule.
FIG. 15 is a graphical display showing the relative binding curves of 2D12.5 for Y-DOTA isomers and Y-DTPA. 2D12.5 binds both the (R)- and (S)- isomers of 2-(4-nitrobenzyl)-DOTA when the coordinated metal is Y^3+ (the same behavior is expected for the other rare earths). The (S)-isomer confers Λ-helicity, while the (R)-isomer confers Δ-helicity to the acetate arms. […] Y-DOTA (no-sidearm) exists is solution as a racemic mixture of the coordination isomers.

antibody 2D12.5 [2] = assay: competitive immunoassay (ELISA) of metal-DOTA complexes relative to Y-DOTA; format: binding, murine; conditions: metal complexes of [S]-2-(p-nitrobenzyl)-DOTA, 37° C.
Excerpt: FIG. 13 is graphical display showing the relative binding of metal-DOTA complexes to antibody 2D12.5. A representative set of competitive binding curves obtained from ELISA experiments described in Example 3 below. Error bars (representing the standard error of the mean) are shown, but are generally smaller than the data points.
To determine the metal selectivity of the antibody 2D12.5, a competitive immunoassay was used to measure the binding constants of multiple metal-DOTA complexes relative to Y^3+-DOTA.
We examined the monoclonal antibody 2D12.5, initially developed to bind specifically to Y-DOTA for targeted radiotherapy (see, e.g., Goodwin et al., Cancer Res. 54: 5937-5946 (1994)), in order to determine the scope of its activity. To assess the metal selectivity of antibody 2D12.5, a competitive immunoassay to measure the binding constants of various metal-DOTA complexes relative to the original Y^3+ complex was developed (FIG. 13). Briefly, 2D12.5 was incubated at 37° C. in the presence of immobilized Y-DOTA and a soluble metal-DOTA competitor. The metal-DOTA concentration was varied from μM to pM in order to determine the relative binding affinity of 2D12.5 for each metal chelate in comparison to Y-DOTA. Binding was measured by standard methods known to those of skill in the art. […]
Target sequence in this assay (as listed by the source): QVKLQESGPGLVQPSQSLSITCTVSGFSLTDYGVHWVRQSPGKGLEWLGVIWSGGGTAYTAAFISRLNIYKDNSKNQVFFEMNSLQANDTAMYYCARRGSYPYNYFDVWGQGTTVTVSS
Target sequence in this assay (as listed by the source): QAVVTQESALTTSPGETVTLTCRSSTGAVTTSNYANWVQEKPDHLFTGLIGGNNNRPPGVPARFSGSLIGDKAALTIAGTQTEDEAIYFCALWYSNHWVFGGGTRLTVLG

Molecule	relative binding affinity for 2D12.5, isomers (antibody 2D12.5 [1])	relative binding affinity for 2D12.5, side chain location (antibody 2D12.5 [1])	binding to 2D12.5 compared with the Y^3+ complex (antibody 2D12.5 [2])	binding to 2D12.5 compared with the Y^3+ complex (antibody 2D12.5 [2]; listed as Gd^3+)
O=C(O)CN1CCN(CC(=O)O)CCN(CC(=O)O)C(Cc2ccc([N+](=O)[O-])cc2)CN(CC(=O)O)CC1 (single isomer, unassigned; isomer 2) [(R)-isomer, 2-(4-nitrobenzyl)-DOTA]	affinity decreases less than an order of magnitude	–	–	–
O=C(O)CN1CCN(CC(=O)O)CCN(CC(=O)O)[C@@H](Cc2ccc([N+](=O)[O-])cc2)CN(CC(=O)O)CC1 [(S)-2-(4-nitrobenzyl)-DOTA, (S)-2-(4-nitro-benzyl)-1,4,7,10-tetraazacyclododecane-N,N′,N″,N′″-tetraacetic acid]	preferred isomer for binding	clearly stronger	–	–
(5-Amino-2-methoxy-phenyl)-carboxymethyl)-DOTA	–	still sufficiently strong	–	–
Gd-DOTA	–	–	bind more tightly than the original Y^3+ complex	strongest binders
